The structures appear in SMILES notation. Several values for one entry are separate records, joined by “and”; a condition that tells them apart may be missing. Equal values may be shown once.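 Grown in 96-well plates, cells were treated for 48 hours with each compound at five concentrations. Insufficient inhibition: endpoint recorded as highest concentration tested. At the GI50, growth is halved. TGI marks complete inhibition of growth.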

In one experiment the test system is HOP-92 NSCLC. Nature of the experiment: inhibition of tumour cell growth, NCI panel, 48 h.
Take `OCC12C3C4C5C3C1C5C42` (configuration not stated): the TGI was more than 100 µM.
For the compound `CCCCCCCCCCCCCCCCCC[n+]1ccc2c(C)c3c(c(C)c2c1)c1cc(O)ccc1n3CC`, the GI50 is 1.64 µM and the TGI stood at 5.68 µM.
Consider `CCc1ccc2c(c1)N(CCO)C1=C(C(=O)OC1)C2c1cccc(Br)c1` (configuration not stated), for which the GI50 was 3.15 µM and the TGI turned out to be 21.5 µM.
As to `O=c1[nH]c(=O)n(C2CC(O)C(COP(=O)(OCc3ccc([N+](=O)[O-])o3)N(CCCCCl)CC(O)CO)O2)cc1F` (configuration not stated), the GI50 was 0.156 µM.
For the compound `CC(C)NCCCn1c(Sc2cc3c(cc2I)OCO3)nc2c(N)ncnc21`, the GI50 is 0.289 µM and the TGI was found to be 1.62 µM.
For the compound `CN1C(=O)N(C)C2C1NN=c1s/c(=C\c3ccc(C(F)(F)F)cc3)c(=O)n12` (configuration not stated), the GI50 is 0.433 µM and the TGI is 57.9 µM.
For `N#Cc1c(N2CCOCC2)nc(=S)[nH]c1-c1ccco1`, the GI50 is 1.79 µM and the TGI was more than 100 µM.
On to `C[C@@H]1CN(Cc2ccc(F)cc2)[C@@H](C)CN1C(=O)c1cc2c(C(=O)C(=O)N(C)C)cn(C)c2cc1Cl`, for which the GI50 was 19.4 µM and the TGI amounted to 56.5 µM.

The next experiment has as its system CAKI-1 renal. The experiment can be described thus: inhibition of tumour cell growth, NCI panel, 48 h.
With `Nc1nc(OCc2ccccc2)c2[nH]cnc2n1`, the GI50 is 13.2 µM and 13.4 µM; the TGI is 44.2 µM and 72.4 µM and 43.5 µM.
Turning to `Fc1ccc(/C=N/n2c(-c3ccc(F)c(Cl)c3)nn(CNc3ccccc3C(F)(F)F)c2=S)cc1`, the GI50 was more than 100 µM and the TGI was more than 100 µM.
With `CN[C@@H](C)C(=O)N[C@H](C(=O)N1CCC[C@H]1C(=O)Nc1sc(-c2ncco2)nc1-c1ccccc1)C1CCCCC1`, the GI50 is 51.8 µM and the TGI was more than 100 µM.
`CC1=C2[C@@H](CC1)[C@]1(C)O[C@@](c3ccccc3)(C[C@H]1OC(=O)CO)[C@H]2OC(=O)/C=C/c1ccccc1`: the GI50 was 12.5 µM and the TGI came to 41.4 µM.
For `NC(=O)c1csc(C2OC(CO)C(O)C2O)n1` (configuration not stated), the GI50 is 65.8 µM and > 50.1 µM; the TGI was 1220 µM.
As for `CCCN(CCS(C)(=O)=O)Cc1ccc(-c2ccc3ncnc(Nc4ccc(OCc5cccc(F)c5)c(Cl)c4)c3c2)o1`, the GI50 is 0.997 µM and the TGI is more than 25 µM.
In the same order, the values of `CC(C)C[C@H](NC(=O)CNC(=O)c1cc(Cl)ccc1Cl)B1OC(=O)CC(CC(=O)O)(C(=O)O)O1` (some centres not stated) are 0.041 µM and 4.48 µM.
In the case of `OCC12C3C4C5C3C1C5C42` (configuration not stated), the TGI is more than 100 µM.
Turning to `CCCCCCCCCCCCCCCCCC[n+]1ccc2c(C)c3c(c(C)c2c1)c1cc(O)ccc1n3CC`, the GI50 is 11.5 µM and the TGI turned out to be 28.7 µM.
Take `CCc1ccc2c(c1)N(CCO)C1=C(C(=O)OC1)C2c1cccc(Br)c1` (configuration not stated): the GI50 was 0.711 µM and the TGI is 23 µM.
With `O=c1[nH]c(=O)n(C2CC(O)C(COP(=O)(OCc3ccc([N+](=O)[O-])o3)N(CCCCCl)CC(O)CO)O2)cc1F` (configuration not stated), the GI50 was 0.191 µM and the TGI is 0.589 µM.
Take `CC(C)NCCCn1c(Sc2cc3c(cc2I)OCO3)nc2c(N)ncnc21`: the GI50 is 0.527 µM and the TGI was more than 21.1 µM.
For `CN1C(=O)N(C)C2C1NN=c1s/c(=C\c3ccc(C(F)(F)F)cc3)c(=O)n12` (configuration not stated), the GI50 was 3.39 µM and the TGI was more than 100 µM.
On the same counts, the results for `N#Cc1c(N2CCOCC2)nc(=S)[nH]c1-c1ccco1` are 3.77 µM and 62.4 µM.
On to `C[C@@H]1CN(Cc2ccc(F)cc2)[C@@H](C)CN1C(=O)c1cc2c(C(=O)C(=O)N(C)C)cn(C)c2cc1Cl`, for which the GI50 was 16.1 µM and the TGI turned out to be 67.4 µM.

The next experiment relates to UO-31 renal. Nature of the experiment: inhibition of tumour cell growth, NCI panel, 48 h.
With `Nc1nc(OCc2ccccc2)c2[nH]cnc2n1`, the GI50 is 17.1 µM; the TGI is 82 µM and 82.2 µM.
On to `Fc1ccc(/C=N/n2c(-c3ccc(F)c(Cl)c3)nn(CNc3ccccc3C(F)(F)F)c2=S)cc1`, for which the GI50 was 34.8 µM and the TGI was more than 100 µM.
In the case of `CN[C@@H](C)C(=O)N[C@H](C(=O)N1CCC[C@H]1C(=O)Nc1sc(-c2ncco2)nc1-c1ccccc1)C1CCCCC1`, the GI50 was 32.1 µM and the TGI was more than 68.9 µM.
Regarding `CC1=C2[C@@H](CC1)[C@]1(C)O[C@@](c3ccccc3)(C[C@H]1OC(=O)CO)[C@H]2OC(=O)/C=C/c1ccccc1`, the GI50 was 0.618 µM and the TGI was determined as 27.6 µM.
Consider `NC(=O)c1csc(C2OC(CO)C(O)C2O)n1` (configuration not stated), for which the GI50 was 44.6 µM and the TGI worked out at 1740 µM.
Consider `CCCN(CCS(C)(=O)=O)Cc1ccc(-c2ccc3ncnc(Nc4ccc(OCc5cccc(F)c5)c(Cl)c4)c3c2)o1`, for which the GI50 is 5.12 µM and the TGI is more than 25 µM.
As for `CC(C)C[C@H](NC(=O)CNC(=O)c1cc(Cl)ccc1Cl)B1OC(=O)CC(CC(=O)O)(C(=O)O)O1` (some centres not stated), the GI50 is 0.0586 µM and the TGI worked out at 2 µM.
In turn, `OCC12C3C4C5C3C1C5C42` (configuration not stated) returned a TGI of more than 100 µM.
For `CCCCCCCCCCCCCCCCCC[n+]1ccc2c(C)c3c(c(C)c2c1)c1cc(O)ccc1n3CC`, the GI50 was 3.39 µM and the TGI was determined as 18.7 µM.
For the compound `CCc1ccc2c(c1)N(CCO)C1=C(C(=O)OC1)C2c1cccc(Br)c1` (configuration not stated), the GI50 was 1.05 µM and the TGI is 18.1 µM.
On to `O=c1[nH]c(=O)n(C2CC(O)C(COP(=O)(OCc3ccc([N+](=O)[O-])o3)N(CCCCCl)CC(O)CO)O2)cc1F` (configuration not stated), for which the GI50 was 0.174 µM and the TGI is more than 100 µM.
On the same counts, the results for `CC(C)NCCCn1c(Sc2cc3c(cc2I)OCO3)nc2c(N)ncnc21` are 0.323 µM and 7.13 µM.
`CN1C(=O)N(C)C2C1NN=c1s/c(=C\c3ccc(C(F)(F)F)cc3)c(=O)n12` (configuration not stated): the GI50 was 2.21 µM and the TGI was more than 100 µM.
On the same counts, the results for `N#Cc1c(N2CCOCC2)nc(=S)[nH]c1-c1ccco1` are 2.67 µM and 72.3 µM.
In the case of `C[C@@H]1CN(Cc2ccc(F)cc2)[C@@H](C)CN1C(=O)c1cc2c(C(=O)C(=O)N(C)C)cn(C)c2cc1Cl`, the GI50 was 15.3 µM and the TGI was more than 81.9 µM.

The values are drawn from PubChem BioAssay (NCI).
